Test [1] relates to hESC H9 lines carrying MYH6-mCherry reporters. As to the kind of experiment: Human embryonic stem cell high content screening assay (cardiogenesis, MYH6-mCherry reporter). Type of test: cell-based. Conditions: 1250 nM compound; MYH6-mCherry fluorescence readout normalized to DMSO treated wells. How it is done:
Human embryonic stem cell (hESC) H9 lines carrying MYH6-mCherry reporters were maintained: in brief, cells were grown on a mouse embryonic fibroblast coated matrigel plate in Knock Out DMEM media supplemented with 20% Knock Out Serum Replacement and 8 ng/ml bFGF. For embryoid body (EB) differentiation, hESC were mechanically passaged onto gelatin-coated dishes preseeded with mouse embryonic fibroblasts. After 4 days hESC colonies were lifted off with a 10 minute 1 mg/ml collagenase IV treatment and directly differentiated in StemPro 34 with addition of 0.5 ng/ml Bmp4 from day 0-1, 10 ng/ml Bmp4, 5 ng/ml bFGF and 3 ng/ml Activin A from day 1-4. At day 4 and were dissociated gently to single cells with TrypLE. Single cells were then transferred in gelatin coated 384-well optical plates in StemPro 34 with […] FGF at a seeding density of 250,000 cells/cm^2. At this point cells were exposed to test compounds. At day 10, media with compound was removed and exchanged for a serum free media (SFM). T3, the thyroid hormone analog triiodothyronine, was added at day 10 to increase the red signal driven by the MYH6 promoter for more reliable imaging. […] For RT-qPCR analysis T3 treatment was omitted to avoid interference with the biological mRNA expression of MYH6. Media was changed to PBS at day 14 and red fluorescence was imaged on an InCell 1000 high throughput microscope. For the quantification of cardiac induction, image analysis was done with the Cyteseer Image Analysis Software package by measuring the total area and intensity of the MYH6-mCherry reporter in each well. The MYH6-expression levels indicated in the graphs represent the multiplication of the total area and intensity of red fluorescence.
For toxicity assessment the hESC cell line was engineered for screening with a H2B-GFP reporter, allowing quantification of the cell number. Using Cyteseer, total GFP signal was quantified in each well. Wells with a GFP reduction of 20% or more (relative to vehicle only controls) were flagged for toxicity and were manually confirmed under a bright field microscope for evidence of cell death.
For the screens, Z scores (Z score=(average of treated−average of DMSO)/StDev of DMSO) were calculated using the fluorescence readout for each concentration normalized to DMSO treated wells. Integrated Z scores over all concentrations were calculated by adding the Z scores of the 3 concentrations tested. Table 2 reports Z scores at a compound concentration of 1250 nM.

Test [2] concerns Wnt signaling. As to the kind of experiment: Wnt assay (Super TOPflash/Wnt3a dual-luciferase reporter in 293T cells). Type of test: cell-based. The conditions noted are these: Homo sapiens, HEK-293T, TOPflash luciferase normalized to renilla; for inhibition at 1 µM: 1000 nM compound, read-out: Wnt Assay % inh. @ 1000 nM. How it is done: Wnt assay protocol: 293T cells were grown in DMEM-high glucose (phenol red) supplemented with 10% (v/v) FBS and 1 mM L-glutamine. 1 million (M) cells were transfected with 1 μg Super(7×)TOPflash (Addgene plasmid 12456: M50 Super 8× TOPflash; 1 μg Wnt3a)—and 0.1 μg TK-Renilla-Lux (pRL-TK vector)-vectors using lipofectamine 2000 reagent according to the manufacturer's protocol. Cells were allowed to adhere for 8-10 hours, lifted with trypsin/EDTA, centrifuged, homogenized and counted before seeding 25,000 cells/well onto 96-well plates. After letting cells settle and attach for 1-2 hours in the incubator, a dose of test compound (and media/DMSO controls) was added. Plates were incubated for 18-20 hours and luciferase activities were determined using a Dual-Luciferase assay kit according to the manufacturer's instructions. Chemiluminescence was recorder on a plate reader instrument, and firefly-derived luminescence was normalized against renilla luminescence. Data were derived from at least two independent experiments, with a minimum of three replicates per condition. Non-linear regression analysis (log dose/response) was done using Prism 5 software.
Background: Reporter assays use an easily measured gene product as a stand-in for the process of interest.

The values below come from patent US9023340B2, “Wnt inhibitors for human stem cell differentiation” (ChemRegen, Inc., priority 2011, dated 2015).

As to `O=C1[C@@H]2[C@@H]3CC[C@@H](C3)[C@@H]2C(=O)N1[C@H]1CC[C@H](C(=O)Nc2cccnc2)CC1` [Compound 1], the “Cardiogenesis Assay Z score vs DMSO @ 1250 nM” value in test [1] is recorded as 0.6. Further, the IC50 (in general, the concentration at which inhibition is half-maximal) in test [2] amounted to 42 nM.
With `O=C1[C@@H]2[C@@H]3CC[C@@H](C3)[C@@H]2C(=O)N1[C@H]1CC[C@H](C(=O)Nc2ccncc2)CC1` [Compound 2], the “Cardiogenesis Assay Z score vs DMSO @ 1250 nM” value in test [1] was determined as 0.2. For the same compound, 47 nM corresponded to half-maximal inhibition in test [2] (IC50).
As to `CC(=O)c1ccccc1NC(=O)[C@H]1CC[C@H](N2C(=O)[C@@H]3[C@@H]4CC[C@@H](C4)[C@@H]3C2=O)CC1` [Compound 3], the “Cardiogenesis Assay Z score vs DMSO @ 1250 nM” value in test [1] was 132.9. Also, in test [2], the inhibition at 1 µM turned out to be 91 ± 1% and the IC50 was 14 nM.
In the case of `O=C1[C@@H]2[C@@H]3CC[C@@H](C3)[C@@H]2C(=O)N1[C@H]1CC[C@H](C(=O)Nc2ccccn2)CC1` [Compound 4], in test [1], the “Cardiogenesis Assay Z score vs DMSO @ 1250 nM” value is 1.8. Moreover, in test [2], the IC50 came to 86 nM.
Consider `COc1ccc(NC(=O)[C@H]2CC[C@H](N3C(=O)[C@@H]4[C@@H]5CC[C@@H](C5)[C@@H]4C3=O)CC2)cn1` [Compound 5], for which, in test [2], the inhibition at 1 µM is 75 ± 2% and half-maximal inhibition (IC50) was put at 344 nM.
For `Cc1ccc(NC(=O)[C@H]2CC[C@H](N3C(=O)[C@@H]4[C@@H]5CC[C@@H](C5)[C@@H]4C3=O)CC2)cn1` [Compound 6], in test [2], the inhibition at 1 µM stood at 48 ± 7% and 1380 nM corresponded to half-maximal inhibition (IC50).
As for `O=C1[C@@H]2[C@@H]3CC[C@@H](C3)[C@@H]2C(=O)N1[C@H]1CC[C@H](C(=O)Nc2cccnc2Cl)CC1` [Compound 7], in test [1], the “Cardiogenesis Assay Z score vs DMSO @ 1250 nM” value is on record as 3.1. Besides, the IC50 in test [2] came to 166 nM.
Regarding `O=C1[C@@H]2[C@@H]3CC[C@@H](C3)[C@@H]2C(=O)N1[C@H]1CC[C@H](C(=O)Nc2ccc(C(F)(F)F)nc2)CC1` [Compound 8], in test [2], the inhibition at 1 µM was 46 ± 7% and the IC50 was 870 nM.
For the compound `O=C1[C@@H]2[C@@H]3CC[C@@H](C3)[C@@H]2C(=O)N1[C@H]1CC[C@H](C(=O)Nc2ccnc(Cl)c2)CC1` [Compound 9], in test [2], the inhibition at 1 µM came to 68 ± 4% and the IC50 worked out at 374 nM.
With `COC(=O)c1ccccc1NC(=O)[C@H]1CC[C@H](N2C(=O)[C@@H]3[C@@H]4CC[C@@H](C4)[C@@H]3C2=O)CC1` [Compound 10], the “Cardiogenesis Assay Z score vs DMSO @ 1250 nM” value in test [1] is recorded as 44.9. The IC50 in test [2] worked out at 67 nM.
The corresponding values for `O=C1c2ccccc2-c2cccc(NC(=O)[C@H]3CC[C@H](N4C(=O)[C@@H]5[C@@H]6CC[C@@H](C6)[C@@H]5C4=O)CC3)c21` [Compound 11] are 42.7 and 193 nM.
In the case of `CC(=O)c1ccccc1NC(=O)C1CCC(N2C(=O)[C@@H]3[C@@H]4CC[C@@H](C4)[C@@H]3C2=O)CC1` (stereo partly shown) [Compound 12], in test [1], the “Cardiogenesis Assay Z score vs DMSO @ 1250 nM” value is recorded as 117.0. In test [2], the inhibition at 1 µM was found to be 91 ± 1% and 23 nM corresponded to half-maximal inhibition (IC50).
As for `O=C1[C@@H]2[C@@H]3CC[C@@H](C3)[C@@H]2C(=O)N1[C@H]1CC[C@H](C(=O)Nc2cncc(O)c2)CC1` [Compound 13], in test [1], the “Cardiogenesis Assay Z score vs DMSO @ 1250 nM” value turned out to be 99.2. Moreover, inhibition in test [2] was half-maximal at 152 nM (IC50).
The like results for `O=C1CCCc2cccc(NC(=O)[C@H]3CC[C@H](N4C(=O)[C@@H]5[C@@H]6CC[C@@H](C6)[C@@H]5C4=O)CC3)c21` [Compound 14] were, in that order, 69.6 and 19 nM.
The like results for `CC(=O)c1ncccc1NC(=O)[C@H]1CC[C@H](N2C(=O)[C@@H]3[C@@H]4CC[C@@H](C4)[C@@H]3C2=O)CC1` [Compound 17] were, in that order, 236.2 and 2 nM.
The corresponding values for `CC(=O)c1ccncc1NC(=O)[C@H]1CC[C@H](N2C(=O)[C@@H]3[C@@H]4CC[C@@H](C4)[C@@H]3C2=O)CC1` [Compound 18] are 0.2 and 287 nM.
Regarding `O=C1[C@@H]2[C@@H]3CC[C@@H](C3)[C@@H]2C(=O)N1[C@H]1CC[C@H](C(=O)Nc2ccc(Br)cn2)CC1` [Compound 19], the inhibition at 1 µM in test [2] was 68 ± 4%.
Turning to `Cc1ccncc1NC(=O)[C@H]1CC[C@H](N2C(=O)[C@@H]3[C@@H]4CC[C@@H](C4)[C@@H]3C2=O)CC1` [Compound 20], the inhibition at 1 µM in test [2] turned out to be 0%.
The same measure, in the same setting: in the case of `Cc1cncc(NC(=O)[C@H]2CC[C@H](N3C(=O)[C@@H]4[C@@H]5CC[C@@H](C5)[C@@H]4C3=O)CC2)c1` [Compound 21] it was 49 ± 5%.
